Values of other authors as cited in PubChem BioAssay AID1259409 (Chemical Carcinogenesis Research Information System (CCRIS), 2018).

System: rodent chemically induced tumor inhibition, incidence and multiplicity
Assay: CCRIS tumor inhibitor studies
Conditions: Species: RAT; for tumour outcome (control, treated, inhibition, significance): Carcinogen: DIETHYLNITROSAMINE, 55-18-5, N-METHYL-N-NITROSOUREA, 684-93-5, N-BUTYL-N-(4-HYDROXYBUTYL)NITROSAMINE, 3817-11-6, DIMETHY, Dose [Inhibitor]: 0, Route [Inhibitor]: ORAL, Strain/Sex: F344/MALE, Dose [Carcinogen]: 100 MG/KG BW DEN ONCE FOLLOWED BY 20 MG/KG BW MNU 4 TIMES AND 0.05% BBN IN DRINKING WATER DURING FIRST 2 WK THEN 40 MG/K, Promoter: NONE USED

In the case of `CCCCCCOc1cc(C)c(O)c(C)c1C`, the “tumour outcome (control, treated, inhibition, significance)” value (1% IN THE DIET FOR 24 WK BEGINNING 1 DAY POST CARCINOGEN TREATMENT (STUDY DURATION: 28 WK), Target Tissue: Type of Lesion: SMALL INTESTINE: ADENOMA) is listed as 33%, 0%, 100%, p<0.05, the “tumour outcome (control, treated, inhibition, significance)” value (1% IN THE DIET FOR 24 WK BEGINNING 1 DAY POST CARCINOGEN TREATMENT (STUDY DURATION: 28 WK), Target Tissue: Type of Lesion: THYROID: CARCINOMA) is listed as 7%, 8%, -14%, not significant and the “tumour outcome (control, treated, inhibition, significance)” value (1% IN THE DIET FOR 24 WK BEGINNING 1 DAY POST CARCINOGEN TREATMENT (STUDY DURATION: 28 WK), Target Tissue: Type of Lesion: URINARY BLADDER: CARCINOMA) is listed as 7%, 0%, 100%, not significant. For the same compound, the “tumour outcome (control, treated, inhibition, significance)” value (1% IN THE DIET FOR 24 WK BEGINNING 1 DAY POST CARCINOGEN TREATMENT(STUDY DURATION: 28 WK), Target Tissue: Type of Lesion: SMALL INTESTINE: CARCINOMA) was 7%, 0%, 100%, not significant, the “tumour outcome (control, treated, inhibition, significance)” value (1% IN THE DIET FOR 30 D BEGINNING 1 D PRIOR TO CARCINOGEN TREATMENT (STUDY DURATION: 28 WK), Target Tissue: Type of Lesion: URINARY BLADDER: PAPILLOMA) was 7%, 21%, -200%, not significant and the “tumour outcome (control, treated, inhibition, significance)” value (1% IN THE DIET FOR 30 D BEGINNING 1 DAY PRIOR TO CARCINOGEN TREATMENT (STUDY DURATION: 28 WK), Target Tissue: Type of Lesion: LARGE INTESTINE: CARCINOMA) was 7%, 0%, 100%, not significant. For the same compound, the “tumour outcome (control, treated, inhibition, significance)” value (1% IN THE DIET FOR 30 D BEGINNING 1 DAY PRIOR TO CARCINOGEN TREATMENT (STUDY DURATION: 28 WK), Target Tissue: Type of Lesion: SMALL INTESTINE: ADENOMA) was 33%, 14%, 58%, not significant, the “tumour outcome (control, treated, inhibition, significance)” value (1% IN THE DIET FOR 30 D BEGINNING 1 DAY PRIOR TO CARCINOGEN TREATMENT (STUDY DURATION: 28 WK), Target Tissue: Type of Lesion: THYROID: CARCINOMA) was 7%, 0%, 100%, not significant and the “tumour outcome (control, treated, inhibition, significance)” value (1% IN THE DIET FOR 30 D BEGINNING 1 DAY PRIOR TO CARCINOGEN TREATMENT (STUDY DURATION: 28 WK), Target Tissue: Type of Lesion: URINARY BLADDER: CARCINOMA) was 7%, 14%, -100%, not significant. For the same compound, the outcome (Carcinogen: SUBCUTANEOUS, Dose [Inhibitor]: 1,2-DIMETHYLHYDRAZINE [540-73-8], Route [Inhibitor]: 0.125% IN DIET FOR 32 WK BEGINNING 1 WK POST LAST CARCINOGEN DOSE (STUDY DURATION: 36 WK), Strain/Sex: ORAL, Target Tissue: Type of Lesion: 20/21 (95%), 21/21 (100%), -5%, NOT SIGNIFICANT, Dose [Carcinogen]: 2-AMINO-1-METHYL-6-PHENYLIMIDAZO[4,5-B]PYRIDINE [105650-23-5], Promoter: ORAL) was 9.1, 6.2, 32%, not significant.
